Data reported in US11427549B2, “Pyrimidinyloxy benzo-fused compounds as herbicides” (FMC Corporation, priority 2017, dated 2022).

What was measured:
[1] = tested on: galium (catchweed bedstraw, Galium aparine); assay: Test A postemergence, galium; assay type: in vivo; conditions: Galium, post-emergence, 240 h, 0 to 100 scale (0 no effect, 100 complete control), read-out: Plant response rating, Galium; for pest or weed control at 31 g/ha: 31 g ai/ha; for pest or weed control at 125 g/ha: 125 g ai/ha
[2] = tested on: wheat (Triticum aestivum); assay: Test A postemergence, wheat; assay type: in vivo; conditions: Triticum aestivum, post-emergence, 240 h, 0 to 100 scale (0 no effect, 100 complete control), read-out: Plant response rating, Wheat; for plant injury at 31 g/ha: 31 g ai/ha; for plant injury at 125 g/ha: 125 g ai/ha
[3] = tested on: ryegrass, Italian (Italian ryegrass, Lolium multiflorum); assay: Test A postemergence, ryegrass, Italian; assay type: in vivo; conditions: Lolium multiflorum, post-emergence, 240 h, 0 to 100 scale (0 no effect, 100 complete control), read-out: Plant response rating, Ryegrass, Italian; for pest or weed control at 31 g/ha: 31 g ai/ha; for pest or weed control at 125 g/ha: 125 g ai/ha
[4] = tested on: ragweed (common ragweed, Ambrosia elatior); assay: Test A preemergence, ragweed; assay type: in vivo; conditions: Ambrosia artemisiifolia, pre-emergence, 240 h, 0 to 100 scale (0 no effect, 100 complete control), read-out: Plant response rating, Ragweed; for pest or weed control at 31 g/ha: 31 g ai/ha; for pest or weed control at 125 g/ha: 125 g ai/ha
[5] = tested on: barnyardgrass (Echinochloa crus-galli); assay: Test A preemergence, barnyardgrass; assay type: in vivo; conditions: Echinochloa crus-galli, pre-emergence, 240 h, 0 to 100 scale (0 no effect, 100 complete control), read-out: Plant response rating, Barnyardgrass; for pest or weed control at 31 g/ha: 31 g ai/ha; for pest or weed control at 125 g/ha: 125 g ai/ha
[6] = tested on: ducksalad (Heteranthera limosa); assay: Test B flooded paddy test, ducksalad; conditions: Heteranthera limosa, read-out: Plant response rating, Ducksalad (0 to 100 scale, 0 is no effect, 100 is complete control)
[7] = tested on: pigweed (Amaranthus retroflexus); assay: Test A preemergence, pigweed; assay type: in vivo; conditions: Amaranthus retroflexus, pre-emergence, 240 h, 0 to 100 scale (0 no effect, 100 complete control), read-out: Plant response rating, Pigweed; for pest or weed control at 31 g/ha: 31 g ai/ha; for pest or weed control at 125 g/ha: 125 g ai/ha
corn (Zea mays) = assay: Test A postemergence, corn; assay type: in vivo; conditions: Zea mays, post-emergence, 240 h, 0 to 100 scale (0 no effect, 100 complete control); for Corn plant response rating (crop injury, 0 = no effect, 100 = complete kill) at 31 g/ha: 31 g ai/ha; for Corn plant response rating (crop injury, 0 = no effect, 100 = complete kill) at 125 g/ha: 125 g ai/ha
[8] = tested on: barnyardgrass (Echinochloa crus-galli); assay: Test A postemergence, barnyardgrass; assay type: in vivo; conditions: Echinochloa crus-galli, post-emergence, 240 h, 0 to 100 scale (0 no effect, 100 complete control), read-out: Plant response rating, Barnyardgrass; for pest or weed control at 31 g/ha: 31 g ai/ha; for pest or weed control at 125 g/ha: 125 g ai/ha
kochia (Kochia scoparia) [9] = assay: Test A preemergence, kochia; assay type: in vivo; conditions: Bassia scoparia, pre-emergence, 240 h, 0 to 100 scale (0 no effect, 100 complete control), read-out: Plant response rating, Kochia; for pest or weed control at 31 g/ha: 31 g ai/ha; for pest or weed control at 125 g/ha: 125 g ai/ha
[10] = tested on: foxtail, green (green foxtail, Setaria viridis); assay: Test A postemergence, foxtail, green; assay type: in vivo; conditions: Setaria, post-emergence, 240 h, 0 to 100 scale (0 no effect, 100 complete control), read-out: Plant response rating, Foxtail, Green; for pest or weed control at 31 g/ha: 31 g ai/ha; for pest or weed control at 125 g/ha: 125 g ai/ha
[11] = tested on: pigweed (Amaranthus retroflexus); assay: Test A postemergence, pigweed; assay type: in vivo; conditions: Amaranthus retroflexus, post-emergence, 240 h, 0 to 100 scale (0 no effect, 100 complete control), read-out: Plant response rating, Pigweed; for pest or weed control at 31 g/ha: 31 g ai/ha; for pest or weed control at 125 g/ha: 125 g ai/ha
[12] = tested on: blackgrass (Alopecurus myosuroides); assay: Test A postemergence, blackgrass; assay type: in vivo; conditions: Alopecurus myosuroides, post-emergence, 240 h, 0 to 100 scale (0 no effect, 100 complete control), read-out: Plant response rating, Blackgrass; for pest or weed control at 31 g/ha: 31 g ai/ha; for pest or weed control at 125 g/ha: 125 g ai/ha
rice (Oryza sativa) = assay: Test B flooded paddy test, rice; conditions: Oryza sativa, read-out: Plant response rating, Rice (0 to 100 scale, 0 is no effect, 100 is complete control)
kochia (Kochia scoparia) [13] = assay: Test A postemergence, kochia; assay type: in vivo; conditions: Bassia scoparia, post-emergence, 240 h, 0 to 100 scale (0 no effect, 100 complete control), read-out: Plant response rating, Kochia; for pest or weed control at 31 g/ha: 31 g ai/ha; for pest or weed control at 125 g/ha: 125 g ai/ha
[14] = tested on: barnyardgrass (Echinochloa crus-galli); assay: Test B flooded paddy test, barnyardgrass; conditions: Echinochloa crus-galli, read-out: Plant response rating, Barnyardgrass (0 to 100 scale, 0 is no effect, 100 is complete control)
[15] = tested on: ragweed (common ragweed, Ambrosia elatior); assay: Test A postemergence, ragweed; assay type: in vivo; conditions: Ambrosia artemisiifolia, post-emergence, 240 h, 0 to 100 scale (0 no effect, 100 complete control), read-out: Plant response rating, Ragweed; for pest or weed control at 31 g/ha: 31 g ai/ha; for pest or weed control at 125 g/ha: 125 g ai/ha
[16] = tested on: ryegrass, Italian (Italian ryegrass, Lolium multiflorum); assay: Test A preemergence, ryegrass, Italian; assay type: in vivo; conditions: Lolium multiflorum, pre-emergence, 240 h, 0 to 100 scale (0 no effect, 100 complete control), read-out: Plant response rating, Ryegrass, Italian; for pest or weed control at 31 g/ha: 31 g ai/ha; for pest or weed control at 125 g/ha: 125 g ai/ha

Structure (SMILES)	pest or weed control at 31 g/ha [1] [%]	pest or weed control at 125 g/ha [1] [%]	plant injury at 31 g/ha [2] [%]	plant injury at 125 g/ha [2] [%]	pest or weed control at 31 g/ha [3] [%]	pest or weed control at 125 g/ha [3] [%]	pest or weed control at 31 g/ha [4] [%]	pest or weed control at 125 g/ha [4] [%]	pest or weed control at 31 g/ha [5] [%]	pest or weed control at 125 g/ha [5] [%]	pest or weed control at 250 g/ha [6] [%]	pest or weed control at 31 g/ha [7] [%]	pest or weed control at 125 g/ha [7] [%]	Corn plant response rating (crop injury, 0 = no effect, 100 = complete kill) at 31 g/ha (corn (Zea mays)) [%]	Corn plant response rating (crop injury, 0 = no effect, 100 = complete kill) at 125 g/ha (corn (Zea mays)) [%]	pest or weed control at 31 g/ha [8] [%]	pest or weed control at 125 g/ha [8] [%]	pest or weed control at 31 g/ha (kochia (Kochia scoparia) [9]) [%]	pest or weed control at 125 g/ha (kochia (Kochia scoparia) [9]) [%]	pest or weed control at 31 g/ha [10] [%]	other results
O=C1O[C@@H](CCCC(F)(F)F)c2c(Oc3ncc(Cl)cn3)cccc21 [Compound 2, (3S)-4-[(5-Chloro-2-pyrimidinyl)oxy]-3-(4,4,4-trifluorobutyl)-1-(3H)-isobenzofuranone]	0	10	0	0	0	10	0	0	0	0	0	0	20	0	10	0	0	0	0	0	pest or weed control at 125 g/ha [10]: 10%; pest or weed control at 31 g/ha [11]: 10%; pest or weed control at 125 g/ha [11]: 50%; pest or weed control at 31 g/ha [12]: 0%; pest or weed control at 125 g/ha [12]: 0%; plant injury at 250 g/ha (rice (Oryza sativa)): 0%; pest or weed control at 31 g/ha (kochia (Kochia scoparia) [13]): 0%; pest or weed control at 125 g/ha (kochia (Kochia scoparia) [13]): 10%; pest or weed control at 250 g/ha [14]: 0%; pest or weed control at 31 g/ha [15]: 0%; pest or weed control at 125 g/ha [15]: 30%; pest or weed control at 31 g/ha [16]: 0%; pest or weed control at 125 g/ha [16]: 0%
O=C1O[C@H](CCCC(F)(F)F)c2c(Oc3ncc(Cl)cn3)cccc21 [Compound 3, (3R)-4-[(5-Chloro-2-pyrimidinyl)oxy]-3-(4,4,4-trifluorobutyl)-1-(3H)-isobenzofuranone]	100	100	60	90	40	100	0	0	90	100	90	100	100	50	80	30	90	80	100	40	pest or weed control at 125 g/ha [10]: 100%; pest or weed control at 31 g/ha [11]: 100%; pest or weed control at 125 g/ha [11]: 100%; pest or weed control at 31 g/ha [12]: 80%; pest or weed control at 125 g/ha [12]: 100%; plant injury at 250 g/ha (rice (Oryza sativa)): 60%; pest or weed control at 31 g/ha (kochia (Kochia scoparia) [13]): 90%; pest or weed control at 125 g/ha (kochia (Kochia scoparia) [13]): 100%; pest or weed control at 250 g/ha [14]: 60%; pest or weed control at 31 g/ha [15]: 10%; pest or weed control at 125 g/ha [15]: 60%; pest or weed control at 31 g/ha [16]: 70%; pest or weed control at 125 g/ha [16]: 100%
